# Data from PMC8409943, “Study on mechanism of low bioavailability of black tea theaflavins by using Caco-2 cell monolayer” (Drug Delivery, 2021).
# Like-named read-outs stand apart in the source and are kept apart here.
# What was measured:
# MRP1 = assay: Western blot, protein level of MRP1; format: cell-based, Human; conditions: Caco-2 cells, 200 μM, 2 h, normalized to β-actin, vs control
# Method: (§1) Cell lysates were prepared with RIPA lysis buffer. […] Cell protein (50 μg) was loaded onto SDS polyacrylamide gel (5% stacking gel; 8% separating gel) and separated by electrophoresis for 1.5 h at 20 mA. Next, the separated proteins were transferred onto the PVDF membrane in ice bath for 1.5 h at 120 mA, followed by blocking the membrane with 5% nonfat milk in Tris-buffered saline containing 0.1% Tween-20 (TBST) for 1 h at room temperature. After blocking, the blots were incubated overnight at 4 °C with the primary antibody of P-gp, MRP1, MRP2, MRP3, BCRP (1:200) or β-actin (1:40,000), followed by washing with TBST and incubation for 1 h at room temperature with HRP-conjugated goat anti-rabbit (1:3,000). Immunoreactive proteins were visualized by the ECL detection system, band intensity was quantified by Image Lab (Bio-Rad, CA, USA), and the protein contents were normalized to β-actin.
# BCRP = assay: Western blot, protein level of BCRP; format: cell-based, Human; conditions: Caco-2 cells, 200 μM, 2 h, normalized to β-actin, vs control
# Method: as §1
# Caco-2 monolayers = assay: HPLC-MS/MS identification of metabolites in the absorptive transport of Caco-2 monolayers; format: in vitro ADME, Human; conditions: 200 µM, 2 h; for conjugated metabolites (glucuronidated, sulfated and methylated): AP side or BL side of Caco-2 monolayers; for metabolites identified: absorptive transport, AP side and BL side
# Method: TF3G, TF3’G and TFDG were dissolved in DMSO (≤0.5%), and then, diluted with HBSS. Caco-2 cells were incubated with 200 µM TF3G, TF3’G and TFDG at 37 °C for 2 h. Samples collected from both AP side and BL side were measured by HPLC with MS detection, and the metabolites were determined in terms of the standard TF, TF3G, TF3’G, TFDG, and gallic acid (Table S2).
# [1] = Stability (recovery rate) of theaflavins in HBSS and DMEM in the absence of cells; conditions: 2 h
# Method: Standard stock solutions of each theaflavin were diluted with HBSS and DMEM respectively, obtaining final test solutions of 200 μM. The recovery rate of theaflavins in HBSS and in DMEM, in the absence of cells, was analyzed by HPLC after incubation at 37 °C for 0.5, 1, 2, 3, 4, 8, 12, and 24 hours, respectively. The recovery rate was used to measure the stability and calculated as follows: (2) Recovery rate=Ct/C0× 100% where Ct is the final concentration at different incubation time (μM); C0, the initial concentration (μM).
# Theaflavins were characterized by high performance liquid chromatography (HPLC, Agilent 1100VL, Agilent Technologies Inc., CA, USA). Briefly, samples were extracted with 70% methanol, centrifuged at 685 × g for 10 min, and filtered through a 0.45 μm membrane (Nylon 66). The separation was performed by an ODS reversed-phase column (4.6 mm i.d.×250 mm, SB-C18, Agilent Technologies Inc., CA, USA) at a flow rate of 0.7 mL/min. Chromatographic conditions were slightly modified according to China National Standard (GB/T 30483-2013, GAQSIQ, P. R. China, 2013). Samples were eluted with a gradient of solvent A (100 mL water with 9 mL acetonitrile and 2 mL acetic acid) and B (100 mL acetonitrile with 17.8 mL water and 2 mL acetic acid) as follows: 0–5 min, 95% A; 5–10 min, 90% A; 10–20 min, 70% A; 20–25 min, 65% A; 25–30 min, 70% A; 30–35 min, 100% A. Theaflavins were detected using an ultraviolet detector at a wavelength of 278 nm.
# Caco-2 cells = assay: Cytotoxicity study by CCK-8 method; format: cell-based, Human; conditions: 24 h
# Method: Standard stock solutions (1000 μM) of each theaflavin were prepared in 0.1% dimethyl sulfoxide (DMSO) in deionized water, and diluted with fresh DMEM to 100, 200, 300, 400, and 500 µmol/L respectively. Each inhibitor was prepared as instructions. The cytotoxicity of theaflavins and four inhibitors of multidrug resistant associated proteins to Caco-2 cells was examined by CCK-8 method (Song et al., [2014]). Briefly, Caco-2 cells were inoculated onto 96-well microtiter plates at a density of 1 × 10^4 cells per well. After incubation at 37 °C for 24 h, cells were incubated for another 24 h with different concentrations of theaflavins, followed by adding 10 μL CCK-8 solution and 1 h incubation at 37 °C. The absorbance (OD) value was determined at 450 nm using a microplate reader (ELX-800, Bio-Tek Instruments Inc., Winooski, USA). Four inhibitors were used in this study: Vep, inhibitor of P-gp; CsA, inhibitor and substrate of P-gp; MK-571, inhibitor of MRP1, MRP2 and MRP3; FTC, inhibitor of BCRP (Silbermann et al., [1989]; König et al., [1999]; Renes et al., [1999]; Ali et al., [2017]). The cytotoxicity of Vep, CsA, MK-571 or FTC was also determined by CCK-8 assay. […] To determine the effects of inhibitors on the cytotoxicity of theaflavins, cells were incubated with both different theaflavin monomers (100, 200, 300, 400, and 500 μM) and different inhibitors. IC50, the half inhibitory concentration, was calculated from the cell viability. The cell viability was calculated by the following equation: (1) Cell viability (%)=(ODsample− ODblank)/(ODcontrol− ODblank)×100% where ODsample is the absorbance value of cell + sample + complete medium; ODblank, the absorbance value of complete medium; ODcontrol, the absorbance value of cell + complete medium.
# Caco-2 cell monolayers = assay: Transepithelial transport of theaflavins across Caco-2 cell monolayers, with or without efflux transporter inhibitors; format: in vitro ADME, Human; conditions: for fold increase in the influx: absorptive transport, with verapamil vs control, 2 h
# Method: (§2) For transport studies, Caco-2 cells were seeded at a density of 3 × 10^5 cells per well in Transwell® inserts (polycarbonate membrane, 24 mm i.d., 0.4 μm pore size, Corning Costar Corp., NY, USA) in 6-well plates (Zhang et al., [2004]). […] The inserts were washed twice with HBSS buffer and equilibrated at 37 °C for 30 min. Standard stock solutions of each theaflavin were diluted to 200 μM with HBSS. For absorptive transport, theaflavins in 1.5 mL HBSS was added into the AP side and 2.6 mL HBSS was added into the BL side of all inserts. For secretory transport, 1.5 mL HBSS and 2.6 mL theaflavins in HBSS were added into AP side and BL side, respectively. Samples were collected from the receiving chamber after 0.5, 1, 2, 3, or 4 h incubation and then were lyophilized at −110 °C in a CoolSafe freeze dryer (LaboGene ApS, Bjarkesvej, Denmark) for HPLC analysis. The recovery rate of theaflavins in the transport was calculated from the above Equation (2).
# (§3) Prior to transport inhibition experiment, cells were preincubated for 30 min with 100 μM Vep, 100 μM CsA, 100 μM MK-571, or 10 μM FTC in both sides (Vaidyanathan & Walle, [2001]; Wang et al., [2008]). Then, the absorptive and secretory experiments were performed in the presence of inhibitors as described above. Samples were collected from the receiving chamber after 2 h incubation and then were lyophilized at −110 °C for HPLC analysis.
# (§4) The apparent permeability coefficient (Papp, cm/s) was calculated as follows: (3) Papp= dQ/dt×V/(A×C0) where dQ/dt is the variation in concentration on the receiving side over time (μM/s); V, the volume of the solution collected from the receiving chamber (cm^3); A, the area of the membrane (4.67 cm^2); C0, the initial concentration of theaflavins in the donor chamber (μM).
# (§5) The efflux ratio was calculated as follows: (4) Efflux ratio= Papp(BL−AP)/Papp(AP−BL) where Papp, apparent permeability coefficient; AP-BL, apical to basolateral transport; BL-AP, basolateral to apical transport.
# [2] = as above; format: in vitro ADME, Human; conditions: human; for recovery at 2 h, 200 μM: Caco-2, Caco-2 monolayers, after 2 h incubation; for efflux ratio at 2 h, 200 μM / Papp A→B at 2 h, 200 μM / Papp B→A at 2 h, 200 μM: 2 h incubation
# Method: as §2, §3, §4, §5
# [3] = Homo sapiens, Ctrl (no inhibitor)
# [4] = apical to basolateral, read-out: recovery of theaflavins in absorptive transport
# [5] = basolateral to apical, read-out: recovery of theaflavins in secretory transport
# [6] = Caco-2, Papp(BL−AP)/Papp(AP−BL), Ctrl (no inhibitor)
# [7] = Caco-2, absorptive transport, 200 μM theaflavin in HBSS, Ctrl (no inhibitor)
# [8] = Caco-2, secretory transport, 200 μM theaflavin in HBSS, Ctrl (no inhibitor)
# [9] = Caco-2, with 10 μM FTC (BCRP inhibitor), + 10 μM FTC (BCRP inhibitor)
# [10] = Caco-2, with 10 μM FTC (BCRP inhibitor), absorptive transport, + 10 μM FTC (BCRP inhibitor)
# [11] = Caco-2, with 10 μM FTC (BCRP inhibitor), secretory transport, + 10 μM FTC (BCRP inhibitor)
# [12] = Caco-2, with 100 μM CsA (P-gp inhibitor and substrate), + 100 μM CsA (P-gp inhibitor and substrate)
# [13] = Caco-2, with 100 μM CsA (P-gp inhibitor and substrate), absorptive transport, + 100 μM CsA (P-gp inhibitor and substrate)
# [14] = Caco-2, with 100 μM CsA (P-gp inhibitor and substrate), secretory transport, + 100 μM CsA (P-gp inhibitor and substrate)
# [15] = Caco-2, with 100 μM Vep (P-gp inhibitor), + 100 μM Vep (P-gp inhibitor)
# [16] = Caco-2, with 100 μM Vep (P-gp inhibitor), absorptive transport, + 100 μM Vep (P-gp inhibitor)
# [17] = Caco-2, with 100 μM Vep (P-gp inhibitor), secretory transport, + 100 μM Vep (P-gp inhibitor)
SMILES,increase of protein level of MRP1 (MRP1),increase of protein level of BCRP (BCRP),"conjugated metabolites (glucuronidated, sulfated and methylated) (Caco-2 monolayers)",metabolites identified (Caco-2 monolayers),IC50 (Caco-2 cells; + CsA) [µM],IC50 (Caco-2 cells; + FTC) [µM],IC50 (Caco-2 cells; + MK-571) [µM],IC50 (Caco-2 cells; + VEP) [µM],IC50 (Caco-2 cells; [3]) [µM],"recovery at 2 h, 200 μM [2, 4] [%]","recovery at 2 h, 200 μM [2, 5] [%]","efflux ratio at 2 h, 200 μM [2, 6]","Papp A→B at 2 h, 200 μM [2, 7] [×10⁻⁶ cm/s]","Papp B→A at 2 h, 200 μM [2, 8] [×10⁻⁶ cm/s]","efflux ratio at 2 h, 200 μM [2, 9]","Papp A→B at 2 h, 200 μM [2, 10] [×10⁻⁶ cm/s]","Papp B→A at 2 h, 200 μM [2, 11] [×10⁻⁶ cm/s]","efflux ratio at 2 h, 200 μM [2, 12]","Papp A→B at 2 h, 200 μM [2, 13] [×10⁻⁶ cm/s]","Papp B→A at 2 h, 200 μM [2, 14] [×10⁻⁶ cm/s]",other results
"O=C(O[C@@H]1Cc2c(O)cc(O)cc2O[C@@H]1c1cc(O)c(O)c2c(=O)c(O)cc([C@H]3Oc4cc(O)cc(O)c4C[C@H]3O)cc12)c1cc(O)c(O)c(O)c1 [TF3’G, theaflavin-3’-gallate]",increased,increased,not detected,"GA (peak M3, Figure 5(G,H)) and TF",575 ± 84.3,432 ± 30.7,424 ± 35,467 ± 53.3,521 ± 31.9,31.8,31.6,1.62 ± 0.15,0.044 ± 0.003,0.072 ± 0.003,1.26 ± 0.11,0.054 ± 0.003,0.067 ± 0.002,1.55 ± 0.14,0.054 ± 0.003,0.084 ± 0.003,"degraded due to the structural instability [1]: 22.1%; fold increase in the influx (Caco-2 cell monolayers): 1.24 fold; efflux ratio at 2 h, 200 μM [2, 15]: 1.08 ± 0.1; Papp A→B at 2 h, 200 μM [2, 16]: 0.055 ± 0.003 ×10⁻⁶ cm/s; Papp B→A at 2 h, 200 μM [2, 17]: 0.059 ± 0.002 ×10⁻⁶ cm/s"
"O=C(O[C@@H]1Cc2c(O)cc(O)cc2O[C@@H]1c1cc(O)c(=O)c2c(O)c(O)cc([C@H]3Oc4cc(O)cc(O)c4C[C@H]3O)c2c1)c1cc(O)c(O)c(O)c1 [TF3G, theaflavin-3-gallate]",58.36%,115.78%,not detected,GA and TF,446 ± 30.1,508 ± 15.9,585 ± 78.7,454 ± 13.2,641 ± 7.8,44.2,47.6,1.58 ± 0.3,0.107 ± 0.004,0.168 ± 0.03,1.41 ± 0.27,0.109 ± 0.004,0.153 ± 0.027,1.13 ± 0.22,0.13 ± 0.005,0.146 ± 0.026,"degraded due to the structural instability [1]: 24.6%; fold increase in the influx (Caco-2 cell monolayers): 1.90 fold; transport amount, absorptive transport (peak) (Caco-2 cell monolayers; apical to basolateral, 200 μM, at 3 h): 1.30 ± 0.08 nmol; transport amount, secretory transport (peak) (Caco-2 cell monolayers; basolateral to apical, 200 μM, at 3 h): 3.59 ± 0.36 nmol; efflux ratio at 2 h, 200 μM [2, 15]: 0.86 ± 0.16; Papp A→B at 2 h, 200 μM [2, 16]: 0.203 ± 0.008 ×10⁻⁶ cm/s; Papp B→A at 2 h, 200 μM [2, 17]: 0.173 ± 0.031 ×10⁻⁶ cm/s"
"O=C(O[C@@H]1Cc2c(O)cc(O)cc2O[C@@H]1c1cc(O)c(=O)c2c(O)c(O)cc([C@H]3Oc4cc(O)cc(O)c4C[C@H]3OC(=O)c3cc(O)c(O)c(O)c3)c2c1)c1cc(O)c(O)c(O)c1 [TFDG, theaflavin-3, 3’-digallate]",increased,increased,not detected,"GA, TF, TF3G, and TF3’G",702 ± 69.4,580 ± 83.9,373 ± 38.8,509 ± 40.6,580 ± 34.7,32.7,24.7,1.57 ± 0.08,0.364 ± 0.034,0.569 ± 0.049,1.47 ± 0.08,0.375 ± 0.035,0.552 ± 0.048,1.58 ± 0.09,0.4 ± 0.037,0.632 ± 0.055,"transport amount, absorption peak (Caco-2 cell monolayers; apical to basolateral, 200 μM, at 2 h): 2.44 ± 0.23 nmol; transport amount, secretion peak (Caco-2 cell monolayers; basolateral to apical, 200 μM, at 2 h): 3.83 ± 0.33 nmol; efflux ratio at 2 h, 200 μM ([2]; Caco-2, with 100 μM MK-571 (MRP1, MRP2, MRP3 inhibitor), + 100 μM MK-571 (MRP1, MRP2, MRP3 inhibitor)): 1.35 ± 0.07; Papp A→B at 2 h, 200 μM ([2]; Caco-2, with 100 μM MK-571 (MRP1, MRP2, MRP3 inhibitor), absorptive transport, + 100 μM MK-571 (MRP1, MRP2, MRP3 inhibitor)): 0.389 ± 0.036 ×10⁻⁶ cm/s; Papp B→A at 2 h, 200 μM ([2]; Caco-2, with 100 μM MK-571 (MRP1, MRP2, MRP3 inhibitor), secretory transport, + 100 μM MK-571 (MRP1, MRP2, MRP3 inhibitor)): 0.524 ± 0.046 ×10⁻⁶ cm/s; efflux ratio at 2 h, 200 μM [2, 15]: 1.53 ± 0.08; Papp A→B at 2 h, 200 μM [2, 16]: 0.357 ± 0.033 ×10⁻⁶ cm/s; Papp B→A at 2 h, 200 μM [2, 17]: 0.546 ± 0.047 ×10⁻⁶ cm/s"
